Measured values reported in article PMC6430500, “3-Fluoro-4-hydroxyprolines: Synthesis, Conformational Analysis, and Stereoselective Recognition by the VHL E3 Ubiquitin Ligase for Targeted Protein Degradation” (Journal of the American Chemical Society, 2018).
Like-named read-outs stand apart in the source and are kept apart here.

Legend:
Brd4BD2 = biological target: T1, Brd4BD2 (Homo sapiens, UniProt O60885); assay: ITC of PROTACs, binary titration with Brd4BD2; type: binding; conditions: PROTAC in cell, Brd4BD2 in syringe
T1 construct: Brd4BD2 (333–460); made in house; host or cells: E. coli BL21(DE3)
Excerpt: (§1) structure (C2 R, C3 S, C4 R) assumed on the basis of unchanging stereogenic centres in the synthesis.
(§2) Final R(F) = 0.033, wR(F 2) = 0.085 for 275 parameters and 3901 reflections with I > 2σ(I) (corresponding R-values based on all 4067 reflections = 0.035 and 0.086, respectively), CCDC […]
(§3) Protein expression and purification.
(§4) Wild-type versions of human proteins VHL (UniProt accession number: P40337), ElonginC […]
(§5) expression. For expression of VBC, N-terminally His6-tagged VHL (54–213), ElonginC (17–112) and ElonginB (1–104) were co- expressed in Escherichia coli BL21(DE3) at 24 °C for 16 h using 0.3 mM isopropyl β-D -1-thiogalactopyranoside (IPTG). E. coli cells were lysed using a pressure cell homogenizer (Stansted Fluid Power) and lysate clarified by centrifugation. His6-tagged VCB was purified on a HisTrap FF affinity column (GE Healthcare) by elution with an imidazole gradient. The His6tag was removed using TEV protease and the untagged complex dialyzed into low -concentration imidazole buffer. VCB was then flowed through the HisTrap FF column a second time, allowing impurities to bind, as the complex eluted without binding. VCB was then additionally purified by anion exchange and size-exclusion chromatography using ResourceQ and Superdex-75 columns (GE Healthcare), respectively. The final purified complex was stored in 20 mM Bis–Tris, pH 7, 150 mM sodium chloride and 1 mM dithiothreitol (DTT). Brd2BD1 (71–194), and Brd4BD2 (333–460) were expressed with an N-terminal His6 tag in E. coli BL21(DE3) at 18 °C for 20 h using 0.2 mM IPTG.
(§6) His6-tagged BDs were purified on nickel Sepharose 6 fast flow beads (GE Healthcare) by elution with increasing concentrations of imidazole. For crystallography the His6-tagged BD was cleaved with TEV protease and dialyzed into low-concentration imidazole buffer. The BD was then flowed over the nickel beads a second time to remove impurities and protease. BDs were then additionally purified by size-exclusion chromatography using a Superdex-75 column. The BDs were purified by size-exclusion chromatography using a Superdex-75 column. The final purified proteins were stored in 20 mM 4-(2-hydroxyethyl)-1-piperazineethanesulfonic acid (HEPES), pH 7.5, 150 mM sodium chloride and 1 mM DTT. All chromatography purification steps were performed using Äkta FPLC purification systems (GE Healthcare) or glass econo-columns (Bio-Rad) at room temperature.
(§7) Isothermal titration calorimetry (ITC) of peptides and ligands
(§8) Titrations were performed on an ITC200 micro-calorimeter (GE Healthcare). The peptides were dissolved in buffer (20 mM Bis–Tris propane, 100 mM NaCl, 1 mM tris(2-carboxyethyl)phosphine […]
(§9) (TCEP), pH 7.4) at 100 µM. The compounds were titrated against 10 µM VBC complex, equilibrated in the same buffer. The titrations consisted of 20 injections of 2 µL of peptide solution at a rate of 0.5 µL/s at 120 s time intervals. An initial injection of ligand (0.4 µL) was made and discarded during data analysis. All experiments were performed at 25°C while stirring at 650 rpm.
(§10) Ligands 14a- b were diluted from DMSO stock solution to 300 µM in buffer (20 mM Bis-Tris propane, 150 mM NaCl, 1 mM TCEP, pH 7.4). The compounds were titrated against 30 µM VBC complex, equilibrated in the same buffer. The final concentration of DMSO in each experiment was […]
(§11) The data were fitted to a single-binding-site model using the MicroCal PEAQ-ITC analysis software provided by the manufacturer to obtain the stoichiometry n, the dissociation constant K d, and the enthalpy of binding ΔH . The reported values are the mean ± s.e.m. from independent measurements.
(§12) Isothermal titration calorimetry (ITC)of PROTACs
(§13) The titrations were all performed as reverse mode (protein in syringe, ligand in cell) and consisted of 19 injections of 2 µl protein solution (20 mM Bis–Tris propane, 100 mM NaCl, 1 mM tris(2-carboxyethyl)phosphine (TCEP), pH 7.4) at a rate of 0.5 µl/s at 120 s time intervals. An initial injection (0.4 µl) was made and discarded during data analysis. […]

Brd2BD1 = biological target: T2, Brd2BD1 (Homo sapiens, UniProt P25440); assay: ITC of PROTACs, binary titration with Brd2BD1; type: binding; conditions: PROTAC in cell, Brd2BD1 in syringe
T2 construct: Brd2BD1 (71–194),; made in house; host or cells: E. coli BL21(DE3)
Excerpt: as §1, §2, §3, §4, §5, §6, §7, §8, §9, §10, §11, §12, §13

MV4;11 cells = assay: CellTiter-Glo cell viability assay; type: cell-based; conditions: for EC50: MV4-11, 72 h
Method: MV4;11 cells (15000 cells per well) were dosed for 72 h with compounds serially diluted (1:3) on a clear-bottom 384-well plate with a final concentration of 0.05% (v/v) DMSO. After treatment, Promega CellTiter-Glo luminescent cell viability assay (G7572) was added to the cells according to the manufacturer instructions. The signal from each well was recorded on a BM G Labtech Pherastar luminescence plate reader with recommended settings.
Normalized data were analyzed and plotted with Graphpad Prism software in the ‘log(inhibitor) vs. response -- Variable slope (four parameters)’ module. EC50 values of each test compound were […]

T2 sequence (P25440 71-194): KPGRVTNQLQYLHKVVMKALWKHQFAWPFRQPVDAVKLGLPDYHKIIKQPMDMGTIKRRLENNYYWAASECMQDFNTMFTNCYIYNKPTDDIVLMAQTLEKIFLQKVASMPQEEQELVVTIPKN

SMILES	Kd (Brd4BD2) [nM]	ΔG (Brd4BD2) [kcal/mol]	ΔH (Brd4BD2) [kcal/mol]	–TΔS (Brd4BD2) [kcal/mol]	Kd (Brd2BD1) [nM]	ΔG (Brd2BD1) [kcal/mol]	ΔH (Brd2BD1) [kcal/mol]	–TΔS (Brd2BD1) [kcal/mol]	pEC50, antiproliferative activity (MV4;11 cells; 72 h)	Emax (MV4;11 cells; Homo sapiens, 72 h, read-out: Emax, maximal response at highest concentration) [%]	EC50 (MV4;11 cells; Homo sapiens, read-out: EC50, antiproliferative activity) [nM]	EC50 (MV4;11 cells; Homo sapiens, read-out: pEC50, antiproliferative activity (converted)) [nM]	antiproliferative effect (in words) (MV4;11 cells; 72 h, compared to MZ1 or 15a)
Cc1ncsc1-c1ccc(CNC(=O)[C@@H]2[C@@H](F)[C@@H](O)CN2C(=O)[C@@H](NC(=O)COCCOCCOCCNC(=O)C[C@@H]2N=C(c3ccc(Cl)cc3)c3c(sc(C)c3C)-n3c(C)nnc32)C(C)(C)C)cc1 [15a]	28 ± 2	-10.30	-10.4 ± 0.8	0.1 ± 0.6	97 ± 0.6	-9.57 ± 0.01	-13.7 ± 0.3	4.2 ± 0.3	6.5	92	330	330	–
Cc1ncsc1-c1ccc(CNC(=O)[C@@H]2[C@H](F)[C@@H](O)CN2C(=O)[C@@H](NC(=O)COCCOCCOCCNC(=O)C[C@@H]2N=C(c3ccc(Cl)cc3)c3c(sc(C)c3C)-n3c(C)nnc32)C(C)(C)C)cc1 [15b]	32 ± 3	-10.3 ± 0.1	-9.3 ± 0.4	-0.9 ± 0.4	111 ± 6	-9.49 ± 0.03	-14.1 ± 0.6	4.9 ± 0.6	–	–	–	–	much weaker antiproliferative effect
